From PubChem BioAssay (NCI)
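Exposure lasted 48 hours, with cells grown in 96-well plates and compounds tested at five concentrations. GI50 marks 50% less growth. At the TGI there is no net growth.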

Experiments:
Assay in all cases: NCI-60 cell line screen, 48 h
786-0 renal = test system: 786-0 renal
A498 renal = test system: A498 renal
A549 NSCLC = test system: A549 NSCLC
ACHN renal = test system: ACHN renal
BT-549 breast = test system: BT-549 breast
CAKI-1 renal = test system: CAKI-1 renal
CCRF-CEM leukemia = test system: CCRF-CEM leukemia
DU-145 prostate = test system: DU-145 prostate
HCC-2998 colon = test system: HCC-2998 colon
HCT-116 colon = test system: HCT-116 colon
HCT-15 colon = test system: HCT-15 colon
HT29 colon = test system: HT29 colon
K-562 leukemia = test system: K-562 leukemia
KM12 colon = test system: KM12 colon
LOX IMVI melanoma = test system: LOX IMVI melanoma
M14 melanoma = test system: M14 melanoma
MALME-3M melanoma = test system: MALME-3M melanoma
MCF7 breast = test system: MCF7 breast
MDA-MB-231 breast = test system: MDA-MB-231 breast
MDA-MB-435 = test system: MDA-MB-435
MOLT-4 leukemia = test system: MOLT-4 leukemia
NCI-H226 lung = test system: NCI-H226 lung
NCI-H23 lung = test system: NCI-H23 lung
NCI-H460 lung = test system: NCI-H460 lung
NCI-H522 lung = test system: NCI-H522 lung
NCI/ADR-RES ovarian = test system: NCI/ADR-RES ovarian
OVCAR-3 ovarian = test system: OVCAR-3 ovarian
OVCAR-4 ovarian = test system: OVCAR-4 ovarian
OVCAR-5 ovarian = test system: OVCAR-5 ovarian
OVCAR-8 ovarian = test system: OVCAR-8 ovarian
PC-3 prostate = test system: PC-3 prostate
RPMI-8226 leukemia = test system: RPMI-8226 leukemia
RXF 393 renal = test system: RXF 393 renal
SF-295 CNS = test system: SF-295 CNS
SF-539 CNS = test system: SF-539 CNS
SK-MEL-2 melanoma = test system: SK-MEL-2 melanoma
SK-MEL-28 melanoma = test system: SK-MEL-28 melanoma
SK-MEL-5 melanoma = test system: SK-MEL-5 melanoma
SK-OV-3 ovarian = test system: SK-OV-3 ovarian
SN12C renal = test system: SN12C renal
SNB-19 CNS = test system: SNB-19 CNS
SNB-75 CNS = test system: SNB-75 CNS
SW-620 colon = test system: SW-620 colon
T-47D breast = test system: T-47D breast
TK-10 renal = test system: TK-10 renal
U251 CNS = test system: U251 CNS
UACC-257 melanoma = test system: UACC-257 melanoma
UACC-62 melanoma = test system: UACC-62 melanoma
UO-31 renal = test system: UO-31 renal

With `COc1cc(/C=C/c2cc(/C=C/c3ccc(O)c(OC)c3)n(C(=O)Cc3ccccc3)n2)ccc1O` as the compound, how does the GI50 (786-0 renal) read?
Its GI50 is 0.916 µM.

What about the TGI (786-0 renal) of the same compound?
Its TGI is 4.53 µM.

And the GI50 (A498 renal)?
Its GI50 is 2.41 µM.

And the TGI (A498 renal)?
The TGI was 6.93 µM.

And the GI50 (A549 NSCLC)?
The GI50 was 2.8 µM.

And the TGI (A549 NSCLC)?
Its TGI is 16.6 µM.

What about the GI50 (ACHN renal) of the same compound?
Its GI50 is 0.419 µM.

What about the TGI (ACHN renal) of the same compound?
Its TGI is 29.2 µM.

And the GI50 (BT-549 breast)?
Its GI50 is 0.758 µM.

And the TGI (BT-549 breast)?
The TGI was 3.93 µM.

And the GI50 (CAKI-1 renal)?
Its GI50 is 0.73 µM.

What about the TGI (CAKI-1 renal) of the same compound?
The TGI was 38.4 µM.

And the GI50 (CCRF-CEM leukemia)?
The GI50 was 0.333 µM.

What about the TGI (CCRF-CEM leukemia) of the same compound?
The TGI was over 100 µM.

What about the GI50 (DU-145 prostate) of the same compound?
The GI50 was 1.48 µM.

And the TGI (DU-145 prostate)?
Its TGI is 8.63 µM.

And the GI50 (HCC-2998 colon)?
The GI50 was 2.9 µM.

What about the TGI (HCC-2998 colon) of the same compound?
Its TGI is 11.3 µM.

What about the GI50 (HCT-116 colon) of the same compound?
Its GI50 is 0.491 µM.

What about the TGI (HCT-116 colon) of the same compound?
The TGI was 6.76 µM.

What about the GI50 (HCT-15 colon) of the same compound?
The GI50 was 0.388 µM.

What about the TGI (HCT-15 colon) of the same compound?
Its TGI is 3.79 µM.

And the GI50 (HT29 colon)?
The GI50 was 1.66 µM.

And the TGI (HT29 colon)?
Its TGI is 4.5 µM.

What about the GI50 (K-562 leukemia) of the same compound?
Its GI50 is 0.434 µM.

And the TGI (K-562 leukemia)?
Its TGI is over 100 µM.

And the GI50 (KM12 colon)?
The GI50 was 0.461 µM.

And the TGI (KM12 colon)?
Its TGI is over 100 µM.

And the GI50 (LOX IMVI melanoma)?
Its GI50 is 0.609 µM.

And the TGI (LOX IMVI melanoma)?
The TGI was 9.02 µM.

And the GI50 (M14 melanoma)?
Its GI50 is 0.399 µM.

What about the TGI (M14 melanoma) of the same compound?
Its TGI is 2.64 µM.

What about the GI50 (MALME-3M melanoma) of the same compound?
The GI50 was 0.644 µM.

And the TGI (MALME-3M melanoma)?
Its TGI is 4.98 µM.

What about the GI50 (MCF7 breast) of the same compound?
Its GI50 is 0.333 µM.

And the TGI (MCF7 breast)?
The TGI was 2.52 µM.

What about the GI50 (MDA-MB-231 breast) of the same compound?
Its GI50 is 1.45 µM.

And the TGI (MDA-MB-231 breast)?
Its TGI is 20.9 µM.

What about the GI50 (MDA-MB-435) of the same compound?
The GI50 was 0.218 µM.

What about the TGI (MDA-MB-435) of the same compound?
The TGI was 0.587 µM.

What about the GI50 (MOLT-4 leukemia) of the same compound?
Its GI50 is 0.464 µM.

What about the TGI (MOLT-4 leukemia) of the same compound?
The TGI was over 100 µM.

And the GI50 (NCI-H226 lung)?
Its GI50 is 2.67 µM.

And the TGI (NCI-H226 lung)?
Its TGI is 9.88 µM.

What about the GI50 (NCI-H23 lung) of the same compound?
The GI50 was 1.56 µM.

And the TGI (NCI-H23 lung)?
The TGI was 6.59 µM.

And the GI50 (NCI-H460 lung)?
The GI50 was 0.526 µM.

And the TGI (NCI-H460 lung)?
Its TGI is 10.4 µM.

And the GI50 (NCI-H522 lung)?
Its GI50 is 0.323 µM.

And the TGI (NCI-H522 lung)?
The TGI was 1.49 µM.

And the GI50 (NCI/ADR-RES ovarian)?
Its GI50 is 0.792 µM.

What about the TGI (NCI/ADR-RES ovarian) of the same compound?
Its TGI is 10.9 µM.

What about the GI50 (OVCAR-3 ovarian) of the same compound?
Its GI50 is 1.12 µM.

And the TGI (OVCAR-3 ovarian)?
The TGI was 5.27 µM.

And the GI50 (OVCAR-4 ovarian)?
Its GI50 is 1.11 µM.

And the TGI (OVCAR-4 ovarian)?
Its TGI is 6.39 µM.

And the GI50 (OVCAR-5 ovarian)?
The GI50 was 2.77 µM.

What about the TGI (OVCAR-5 ovarian) of the same compound?
Its TGI is 80 µM.

What about the GI50 (OVCAR-8 ovarian) of the same compound?
Its GI50 is 1.85 µM.

And the TGI (OVCAR-8 ovarian)?
Its TGI is 16.7 µM.

What about the GI50 (PC-3 prostate) of the same compound?
The GI50 was 0.915 µM.

What about the TGI (PC-3 prostate) of the same compound?
The TGI was 4.34 µM.

And the GI50 (RPMI-8226 leukemia)?
The GI50 was 0.411 µM.

What about the TGI (RPMI-8226 leukemia) of the same compound?
The TGI was 2.24 µM.

And the GI50 (RXF 393 renal)?
The GI50 was 1.14 µM.

What about the TGI (RXF 393 renal) of the same compound?
Its TGI is 3.48 µM.

And the GI50 (SF-295 CNS)?
The GI50 was 2.01 µM.

And the TGI (SF-295 CNS)?
The TGI was 6.48 µM.

What about the GI50 (SF-539 CNS) of the same compound?
Its GI50 is 0.475 µM.

What about the TGI (SF-539 CNS) of the same compound?
Its TGI is 3.91 µM.

And the GI50 (SK-MEL-2 melanoma)?
The GI50 was 0.516 µM.

What about the TGI (SK-MEL-2 melanoma) of the same compound?
The TGI was 2.51 µM.

What about the GI50 (SK-MEL-28 melanoma) of the same compound?
Its GI50 is 1.21 µM.

And the TGI (SK-MEL-28 melanoma)?
Its TGI is 15.1 µM.

What about the GI50 (SK-MEL-5 melanoma) of the same compound?
The GI50 was 0.532 µM.

And the TGI (SK-MEL-5 melanoma)?
The TGI was 3.17 µM.

And the GI50 (SK-OV-3 ovarian)?
Its GI50 is 0.69 µM.

And the TGI (SK-OV-3 ovarian)?
The TGI was 2.64 µM.

What about the GI50 (SN12C renal) of the same compound?
Its GI50 is 1.53 µM.

What about the TGI (SN12C renal) of the same compound?
The TGI was 44.5 µM.

What about the GI50 (SNB-19 CNS) of the same compound?
Its GI50 is 2.43 µM.

What about the TGI (SNB-19 CNS) of the same compound?
Its TGI is over 100 µM.

And the GI50 (SNB-75 CNS)?
Its GI50 is 0.545 µM.

And the TGI (SNB-75 CNS)?
The TGI was 3.45 µM.

What about the GI50 (SW-620 colon) of the same compound?
The GI50 was 0.684 µM.

And the TGI (SW-620 colon)?
The TGI was 10.9 µM.

And the GI50 (T-47D breast)?
Its GI50 is 1.33 µM.

And the TGI (T-47D breast)?
Its TGI is 5.17 µM.

What about the GI50 (TK-10 renal) of the same compound?
Its GI50 is 2.58 µM.

And the TGI (TK-10 renal)?
Its TGI is 9.09 µM.

What about the GI50 (U251 CNS) of the same compound?
Its GI50 is 1.21 µM.

And the TGI (U251 CNS)?
Its TGI is 11.2 µM.

What about the GI50 (UACC-257 melanoma) of the same compound?
Its GI50 is 2.68 µM.

And the TGI (UACC-257 melanoma)?
The TGI was 11.5 µM.

What about the GI50 (UACC-62 melanoma) of the same compound?
Its GI50 is 0.883 µM.

And the TGI (UACC-62 melanoma)?
The TGI was 4.76 µM.

And the GI50 (UO-31 renal)?
The GI50 was 0.466 µM.

And the TGI (UO-31 renal)?
Its TGI is 4.31 µM.
